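Five concentrations, 48 hours, 96-well plates. At the GI50, growth is halved. Definition used: TGI = concentration required for complete inhibition of growth.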
How the values were obtained:
Experiment in all cases: DTP human tumour cell line panel, 48 h
BT-549 breast = tested on: BT-549 breast
DU-145 prostate = tested on: DU-145 prostate
HCT-15 colon = tested on: HCT-15 colon
M14 melanoma = tested on: M14 melanoma
MOLT-4 leukemia = tested on: MOLT-4 leukemia
RPMI-8226 leukemia = tested on: RPMI-8226 leukemia
SK-MEL-2 melanoma = tested on: SK-MEL-2 melanoma
SN12C renal = tested on: SN12C renal
UO-31 renal = tested on: UO-31 renal
MDA-MB-435 = tested on: MDA-MB-435

Structure (SMILES): ON(Cc1ccccc1)C(=S)c1ccccc1
- TGI (BT-549 breast): > 100 µM
- TGI (DU-145 prostate): > 100 µM
- TGI (HCT-15 colon): > 100 µM
- TGI (M14 melanoma): 55.6 µM
- TGI (MOLT-4 leukemia): > 41 µM
- TGI (RPMI-8226 leukemia): > 100 µM
- TGI (SK-MEL-2 melanoma): > 100 µM
- TGI (SN12C renal): > 100 µM
- TGI (UO-31 renal): 37.9 µM

Structure (SMILES): NC(=O)c1c([N+](=O)[O-])cc(C(F)(F)F)cc1[N+](=O)[O-]
- TGI (M14 melanoma): > 100 µM
- TGI (MOLT-4 leukemia): > 100 µM
- TGI (RPMI-8226 leukemia): > 100 µM
- TGI (SN12C renal): > 100 µM
- TGI (UO-31 renal): > 100 µM

Structure (SMILES): Cc1cc(-c2ccccc2)nc(Nc2nc3ccccc3o2)n1
- TGI (HCT-15 colon): > 100 µM
- TGI (M14 melanoma): > 100 µM
- TGI (MOLT-4 leukemia): > 100 µM
- TGI (RPMI-8226 leukemia): > 100 µM
- TGI (SK-MEL-2 melanoma): > 100 µM
- TGI (SN12C renal): > 100 µM
- TGI (UO-31 renal): > 100 µM

Structure (SMILES): CN(C)c1ccc(/C=C/c2ccc(/C=C/c3ccc(N(C)C)cc3)cc2)cc1
- TGI (HCT-15 colon): > 100 µM
- TGI (M14 melanoma): > 100 µM
- TGI (MOLT-4 leukemia): > 100 µM
- TGI (RPMI-8226 leukemia): > 100 µM
- TGI (SK-MEL-2 melanoma): > 100 µM
- TGI (SN12C renal): > 100 µM
- TGI (UO-31 renal): > 100 µM

Structure (SMILES): O=C(CC1(O)C(=O)Nc2ccc(Br)cc21)c1ccc(Cl)cc1Cl (centres undefined)
- TGI (HCT-15 colon): > 100 µM
- TGI (M14 melanoma): > 100 µM
- TGI (MOLT-4 leukemia): 68 µM
- TGI (RPMI-8226 leukemia): 50.7 µM
- TGI (SK-MEL-2 melanoma): > 100 µM
- TGI (SN12C renal): > 100 µM
- TGI (UO-31 renal): > 100 µM

Structure (SMILES): N#CC1CCCCOCCOCCOCCOCCOCCCCCC1=O (centres undefined)
- TGI (HCT-15 colon): > 100 µM
- TGI (M14 melanoma): > 100 µM
- TGI (MOLT-4 leukemia): > 100 µM
- TGI (RPMI-8226 leukemia): > 100 µM
- TGI (SK-MEL-2 melanoma): > 100 µM
- TGI (SN12C renal): > 100 µM
- TGI (UO-31 renal): > 100 µM

Structure (SMILES): CS(=O)(=O)NNS(=O)(=O)c1ccccc1
- TGI (HCT-15 colon): > 100 µM
- TGI (M14 melanoma): > 100 µM
- TGI (MOLT-4 leukemia): > 100 µM
- TGI (RPMI-8226 leukemia): > 100 µM
- TGI (SK-MEL-2 melanoma): > 100 µM
- TGI (SN12C renal): > 100 µM
- TGI (UO-31 renal): > 100 µM

Structure (SMILES): CC(=O)NC1C(OCc2ccccc2)OC(CO)C(O)C1OC(C)C(=O)N[C@@H](C)C(=O)N[C@H](CCC(=O)OCCNc1c2ccccc2nc2cccc([N+](=O)[O-])c12)C(N)=O (some centres undefined)
- TGI (HCT-15 colon): 0.00156 µM
- TGI (M14 melanoma): 0.00251 µM
- TGI (MOLT-4 leukemia): > 0.1 µM
- TGI (RPMI-8226 leukemia): > 0.1 µM
- TGI (SK-MEL-2 melanoma): 0.00414 µM
- TGI (SN12C renal): 0.0313 µM
- TGI (UO-31 renal): 0.0107 µM

Structure (SMILES): O=[N+]([O-])c1ccc(Cl)c(C2CC(c3cccc4ccccc34)=Nc3ccccc3S2)c1 (centres undefined)
- TGI (HCT-15 colon): > 100 µM
- TGI (M14 melanoma): 63.4 µM
- TGI (MOLT-4 leukemia): > 56.9 µM
- TGI (RPMI-8226 leukemia): > 47.5 µM
- TGI (SK-MEL-2 melanoma): 62.8 µM
- TGI (SN12C renal): > 59.4 µM
- TGI (UO-31 renal): > 66.8 µM

Structure (SMILES): COC(=O)/C(=N/Nc1cccc(Cl)c1)C(C(=O)C(=O)Nc1cccc(Cl)c1C)c1nc2ccccc2nc1C (centres undefined)
- TGI (M14 melanoma): > 100 µM
- TGI (MOLT-4 leukemia): > 100 µM
- TGI (RPMI-8226 leukemia): > 100 µM
- TGI (SK-MEL-2 melanoma): > 100 µM
- TGI (SN12C renal): > 100 µM
- TGI (UO-31 renal): 75.1 µM

Structure (SMILES): O=[N+]([O-])c1ccc(-c2noc(-c3ccc(Cl)cc3)c2C2=NCCN2)cc1
- TGI (HCT-15 colon): > 100 µM
- TGI (M14 melanoma): > 100 µM
- TGI (MOLT-4 leukemia): > 100 µM
- TGI (RPMI-8226 leukemia): > 100 µM
- TGI (SK-MEL-2 melanoma): > 100 µM
- TGI (SN12C renal): > 100 µM
- TGI (UO-31 renal): > 100 µM

Structure (SMILES): S=c1nc(COc2ccc(Cl)cc2Cl)[nH][nH]1
- TGI (HCT-15 colon): > 100 µM
- TGI (M14 melanoma): > 100 µM
- TGI (MOLT-4 leukemia): > 100 µM
- TGI (RPMI-8226 leukemia): > 100 µM
- TGI (SK-MEL-2 melanoma): > 100 µM
- TGI (SN12C renal): > 100 µM
- TGI (UO-31 renal): > 100 µM

Structure (SMILES): CN(C)C(=Nc1nc(=[N+](C)C)ss1)N(C)C
- TGI (HCT-15 colon): > 100 µM
- TGI (M14 melanoma): > 100 µM
- TGI (MOLT-4 leukemia): > 100 µM
- TGI (RPMI-8226 leukemia): > 100 µM
- TGI (SK-MEL-2 melanoma): > 100 µM
- TGI (SN12C renal): > 100 µM
- TGI (UO-31 renal): > 100 µM

Structure (SMILES): COC(=O)CCC1CCc2c(OC)ccc(OC)c2C1=O (centres undefined)
- TGI (HCT-15 colon): > 100 µM
- TGI (M14 melanoma): > 100 µM
- TGI (MOLT-4 leukemia): > 100 µM
- TGI (RPMI-8226 leukemia): > 100 µM
- TGI (SK-MEL-2 melanoma): > 100 µM
- TGI (SN12C renal): > 100 µM
- TGI (UO-31 renal): > 100 µM

Structure (SMILES): O=C(NCCO)c1ccc([N+](=O)[O-])cc1
- TGI (HCT-15 colon): > 100 µM
- TGI (M14 melanoma): > 100 µM
- TGI (MOLT-4 leukemia): > 100 µM
- TGI (RPMI-8226 leukemia): > 100 µM
- TGI (SK-MEL-2 melanoma): > 100 µM
- TGI (SN12C renal): > 100 µM
- TGI (UO-31 renal): > 100 µM

Structure (SMILES): CCCCC(C)C(OC(=O)CC(CC(=O)O)C(=O)O)C(CC(C)CC(O)CCCCC(O)CC(O)C(C)N)OC(=O)CC(CC(=O)O)C(=O)O (centres undefined)
- TGI (HCT-15 colon): > 100 µM
- TGI (M14 melanoma): > 100 µM
- TGI (MOLT-4 leukemia): > 100 µM
- TGI (RPMI-8226 leukemia): > 100 µM
- TGI (SK-MEL-2 melanoma): > 100 µM
- TGI (SN12C renal): > 100 µM
- TGI (UO-31 renal): > 100 µM

Structure (SMILES): Cc1ccc(/C=C2\CN(C(=O)C(Cl)Cl)C/C(=C\c3ccc(C)cc3)C2=O)cc1
- GI50 (DU-145 prostate): 0.326 µM
- TGI (DU-145 prostate): 1.28 µM
- GI50 (HCT-15 colon): 0.185 µM
- TGI (HCT-15 colon): 0.638 µM
- GI50 (M14 melanoma): 0.261 µM
- TGI (M14 melanoma): 0.784 µM
- GI50 (MDA-MB-435): 0.197 µM
- TGI (MDA-MB-435): 0.408 µM
- GI50 (RPMI-8226 leukemia): 0.0322 µM
- TGI (RPMI-8226 leukemia): 0.484 µM
- GI50 (SK-MEL-2 melanoma): 1.8 µM
- TGI (SK-MEL-2 melanoma): 5.5 µM
- GI50 (UO-31 renal): 0.158 µM
- TGI (UO-31 renal): 0.308 µM

Structure (SMILES): COc1cccc2c1-c1c(c3ccc([N+](=O)[O-])cc3c(=O)n1CCCN)C2=O
- GI50 (BT-549 breast): 1.72 µM
- TGI (BT-549 breast): 3.61 µM
- GI50 (DU-145 prostate): 1.06 µM
- TGI (DU-145 prostate): 6.15 µM
- GI50 (HCT-15 colon): 1.4 µM
- TGI (HCT-15 colon): 3.37 µM
- GI50 (M14 melanoma): 1.54 µM
- TGI (M14 melanoma): 3 µM
- GI50 (MOLT-4 leukemia): 0.0293 µM
- TGI (MOLT-4 leukemia): 0.34 µM
- GI50 (RPMI-8226 leukemia): 1.65 µM
- TGI (RPMI-8226 leukemia): 5.84 µM
- GI50 (SK-MEL-2 melanoma): 1.58 µM
- TGI (SK-MEL-2 melanoma): 3 µM
- GI50 (SN12C renal): 3.23 µM
- TGI (SN12C renal): 9.07 µM
- GI50 (UO-31 renal): 1.26 µM
- TGI (UO-31 renal): 2.59 µM

Structure (SMILES): CN(C)c1nnnn1-c1c(N)n(C)c(=O)n(C)c1=O
- TGI (HCT-15 colon): > 100 µM
- TGI (MOLT-4 leukemia): > 100 µM
- TGI (RPMI-8226 leukemia): > 100 µM
- TGI (SK-MEL-2 melanoma): > 100 µM
- TGI (SN12C renal): > 100 µM
- TGI (UO-31 renal): > 100 µM

— PubChem BioAssay (NCI)
